Experimental data published in US7846469B2, “Reversible inhibition of sperm receptor synthesis for contraception” (The Penn State Research Foundation, priority 2006, dated 2010).
Several values for one entry are separate records, joined by “and”; a condition that tells them apart may be missing. Identical values can stand only once.

Columns and labels:
FDRL rats = details: high dose (300 mg/kg bw per day phenylurea, 100 mg/kg bw per day pyrimidone), F2a and F3a litters; cited from earlier work
mice = test: Direct feeding experiment with mating pairs of mice; assay type: in vivo, mouse
Experimental: The indirect biochemical evidence in the previous section led us to attempt a direct feeding experiment with mice. In this case, mice were fed a 0.5% nicarbazin diet (containing 5% propylene glycol). In addition, 7.5% peanut butter was added to the diet to increase palatability. Ten mating pairs of mice were given access to the diet for 4-5 hrs over a […].

ZPC = test: Western blot of ZPC in oocyte (perivitelline) membrane of laid eggs from fed ducks; assay type: in vivo, duck
Text: Drug feeding began in Week 2; making Week 1 and internal control.
A subsample of eggs were collected during each week of the experiment, in order to dissect, extract and identify the ZPC in the oocyte membrane using and anti-ZPC antibody and western blotting technique. FIG. 4 illustrates that at the 500 ppm dose of nicarbazin, ZPC was undetectable after the 1st week of treatment, and remained absent thereafter.

broiler-breeder hens = details: cited from earlier work
Pekin Ducks = test: Dose-response feeding study in Pekin ducks: egg production and fertility; assay type: in vivo, duck
Text: FIG. 3 depicts the fertility of laid eggs obtained from Pekin Ducks fed varying doses of nicarbazin.
(§1) [Images were taken at 20× magnification with DAPI fluorescent stain.]
(§2) Our first study determined the dose-response relationship for the effect of nicarbazin in reducing egg production and/or hatchability in ducks.
Since all hens in this experiment were artificially inseminated with sperm from untreated drakes, the effects on subsequent fertility were considered to be due entirely to the effect of nicarbazin on the female ducks. […] Further, upon the withdrawal of nicarbazin-treated feed, even the hens receiving the highest dose of nicarbazin returned to normal egg production and fertility within 10 days.

fruit fly = test: Nicarbazin in fruit fly media; assay type: in vivo; details: ethanol carrier
Experimental: According to the invention, nicarbazin specifically influences the expression of the zona pellucida 3 gene and protein in vertebrates. It is expected that other homologs of the ZP3 gene will also be negatively affected by nicarbazine. For example, there is an insect homolog of ZP3 that is a structural component of the wing vein. Nicarbazin interferes with the expression of the insect homolog in the same manner as the vertebrate Gene.
In a quick experiment, 3-5% nicarbazin preparation was added to the media (food) in fruit fly vials using ethanol as a carrier (since fruit flies are attracted to ethanol).

chicken ZPC = test: Western blot for chicken ZPC in isolated hen granulosa cells treated with nicarbazin; assay type: cell-based
Experimental: FIG. 1 is a Western blot of chicken ZPC proteins.
In a preliminary effort to support this hypothesis, we isolated granulosa cells from primary follicles of a laying hen, and suspended them in a simple cell culture media (1 ml medium (M)199-HEPES supplemented with Hank salts (Gibco-BRL) plus 1 ml Dulbecco modified Eagle medium (DMEM) containing 5% FBS). […] The cells were then disrupted with a sonicator and proteins precipitated and heat solubilized per Barbato et al. (1998). Proteins were concentrated, separated via gel electrophoresis and western blot performed with antibodies to chicken ZPC.

[1] = DNC concentrations in blood and laid eggs of ducks fed nicarbazin; assay type: in vivo, duck; details: 31.25-500 ppm in feed
Text: as §2

[2] = tested on: sperm attaching to the oocyte; test: Sperm count on oocyte membrane of eggs from fed, inseminated ducks; assay type: in vivo, duck; details: membranes of eggs from nicarbazin-treated ducks
Text: as §1
Since there appeared to be a decrease in the amount of ZPC (the primary sperm receptor) present in the duck oocyte membranes, we reasoned that the lack of fertility in any laid eggs should be due to a decline in sperm attaching to the oocyte. FIG. 5 illustrates a pair of sample membranes from both control and nicarbazin treated ducks. Consistent with previous data from our lab (e.g., Barbato et al., 1998) 228±15 sperm/mm2 of oocyte membrane were found in eggs from control ducks, whereas there were 0±15 sperm/mm2 counted on the membranes from nicarbazin-treated ducks.

[3] = tested on: inner perivitelline membrane (85% ZPC protein); test: Electron microscopy of inner perivitelline membrane of mature follicle from fed laying hens; assay type: in vivo, chicken; details: 250 ppm nicarbazin treated feed
Text: FIG. 6 is an electron micrograph of a mature follicle from control (C) and nicarbazin treated (T) hens.
As a follow-up experiment, we fed a group of 6 laying hens the 250 ppm nicarbazin treated feed, in an attempt to reduce, but not eliminate, ZPC synthesis. Egg membranes were collected from laid eggs and the most mature follicle dissected from both treated and control hens. The membranes were fixed with osmium tetroxide, sectioned via microtome and viewed with electron microscopy.
This micrograph provides direct, visual confirmation of the previously presented data: that is, that oral nicarbazin dosages reduces the ZP3 content of the oocyte membrane.

rat ZPC mRNA = test: Quantitative rtPCR of ZPC (ZP3) mRNA copy number in rat ovarian tissue; assay type: in vivo
Text: (§3) In an attempt to increase nicarbazin absorption in a mammalian species we paired nicarbazin with a typical pharmaceutical carrier, 5% propylene glycol (PGC). A 500 ppm dose was fed to 8 adult, female rats for a 7-day period, at which time the rats were killed and the ovaries removed and placed in RNAlater (to preserve protein, RNA and DNA—4 control rats were also sacrificed). Ovarian proteins and mRNA were extracted via standard laboratory protocols. FIG. 7 illustrates the results of a western blot for ZPC, using a murine monoclonal antibody (which cross-reacts with rat ZPC).
Upon finding a reduction in ZPC-immunoreactive band intensity from ovarian samples obtained from treated animals, we designed PCR primers to identify mRNA for rat ZPC. By applying the quantitative rtPCR technique we were able to estimate the number of copies of the ZPC mRNA that were present in the ovarian tissue samples.

rat ZPC = test: Western blot for ZPC in rat ovarian tissue after 1 week of nicarbazin feeding; assay type: in vivo; details: 500 ppm with 5% propylene glycol, band at approx. 50 kDa
Text: FIG. 7 is a Western Blot (using mouse ZPC monoclonal antibody) of rat ovarian tissue after 1 week of nicarbazin feeding. [mZPC-mab 1:2000; similar results obtained with dilution of 1:5000 and 1:10000.
as §3

equimolar complex of 1,3-N,N′-bis(4-nitrophenyl)urea and 4,6-dimethyl-2(1H)-pyrimidone [nicarbazin]
litter size (FDRL rats): slightly fewer pups | conception rate (mice; mice, 0.5% nicarbazin diet with 5% propylene glycol and 7.5% peanut butter, ten mating pairs, non-treated 90%): 10% | pups per litter (mice; mice, 0.5% nicarbazin diet, non-treated averaging 6 pups per litter): 0.2 pups/litter | reversibility after removal of treated feed (mice; previously treated mice mated over the next month): conceived normal litters | teratogenic effects in pups (mice; pups of treated mice): no sign of teratogenic effects | ZPC in oocyte membrane (western blot) (ZPC; 250 ppm dose, over time): clear decline in the intensity of ZPC | ZPC in oocyte membrane (western blot) (ZPC; 500 ppm dose, after the 1st week of treatment): undetectable | time to return of normal hatchability and egg production after removal of nicarbazin from feed (broiler-breeder hens; after removal from the feed): 7 to 10 days | egg production (broiler-breeder hens; higher levels (ca. 700 ppm) in feed): eliminated egg production entirely | hatchability of fertile eggs (broiler-breeder hens; lower levels of nicarbazin (<125 ppm) in feed): significant reduction in hatchability | fertility of eggs (Pekin Ducks; 500 ppm nicarbazin ducks, inseminated with 200 million sperm, of 5 eggs set): 20% | egg production (Pekin Ducks; ducks fed 31.25-500 ppm, FIG. 2): decline in egg production | time to return to normal egg production and fertility after withdrawal (Pekin Ducks; highest dose, after withdrawal of nicarbazin-treated feed): ≤ 10 days | fertility of eggs laid by treated hens (Pekin Ducks; oral doses 31.25-500 ppm, hens inseminated with sperm from untreated drakes, FIG. 3): profound effect | fly phenotype (fruit fly; 3% nicarbazin preparation in media): deformed wings and could not fly | hatching of fruit fly eggs (fruit fly; 5% nicarbazin preparation in media): did not hatch | cell viability (chicken ZPC; 100 mM nicarbazin, granulosa cells): all cells were dead | immunoreactive ZPC (western blot) (chicken ZPC; granulosa cells from primary follicles of a laying hen, lanes 4-6 (1, 10, 100 mM nicarbazin)): absence of immunoreactive ZPC | DNC concentrations in blood and laid eggs versus fed nicarbazin dose [1]: linear dose-concentration relationship | sperm on oocyte membrane [2]: 0±15 sperm/mm2 | width of the inner perivitelline membrane (electron micrograph) [3]: reduction in width | ZP3 mRNA copy number, mean of triplicate estimate per rat (rat ZPC mRNA; individual rats fed nicarbazin 500 ppm for 1 week, ovarian tissue): 0.47 and 0.95 (2×) and 0.75 and 0.50 and 0.85 and 0.77 | ZP3 mRNA copy number, overall mean (rat ZPC mRNA; rats fed nicarbazin for 1 week, ovarian tissue, control overall mean 1.00, P = 0.03): 0.71 | reduction in copy number of the ZPC gene (rat ZPC mRNA; rats fed nicarbazin versus control): 30% | ZPC immunoreactive band intensity (western blot) (rat ZPC): reduction in intensity
